Assay results: patent publication US8242166B2, “C(10) ethyl ester and C(10) cyclopropyl ester substituted taxanes” (Florida State University Research Foundation, Inc., priority 2008, dated 2012)
Read-outs that look alike come from different tables or passages of the source.

Tests used:
[1] = system: PANC-1; test: MTT cytotoxicity (IC50), PANC-1; assay type: cell-based; settings: Homo sapiens, 72 h, read-out: IN Vitro IC50 (nm) Panc
Experimental: (§1) Compound 17932 was tested in four of these cell lines, while the remaining compounds were tested in all of these cell lines. All cell lines were maintained in RPMI-1640 tissue culture medium (TCM, supplemented with antibiotics and 10% fetal bovine serum) and cultured at 37° C. in humidified air containing 5% CO2. To assess the antiproliferative effects of the test compounds, 172 μL of tumor cell suspension (1.45×10^4 cells/ml) were added to each well of a 96-well plate and incubated for 24 h at 37° C. in 5% CO2 in air to allow cells to adhere. Seven 2-fold drug dilutions in TCM/DMSO were performed in triplicate in separate 96-well plates and 28 μL was transferred to the wells containing tumor cells (200 μL final volume/0.1% DMSO). Plates were incubated for 72 h and cell viability was determined by adding 50 μL of warm TCM containing 5 mg/mL MTT (3-[4,5-dimethylthiazol-2-yl]-2,5-diphenyltetrazolium bromide) to each well and incubating for 1 h at 37° C. Plates were processed and the absorbances of the resulting solutions were measured by a plate reader at 570 nm. […] (GraphPad Prism version 4.00 for Windows). Studies were conducted by Taxolog, Inc., Tallahassee, Fla.

[2] = system: DLD-1; test: MTT cytotoxicity (IC50), DLD-1; assay type: cell-based; settings: Homo sapiens
Experimental: as §1

[3] = system: HT29; test: MTT cytotoxicity (IC50), HT29; assay type: cell-based; settings: Homo sapiens, HT-29, 72 h, read-out: IN Vitro IC50 (nm) HT29
Experimental: as §1

[4] = system: 786-0; test: MTT cytotoxicity (IC50), 786-0; assay type: cell-based; settings: Homo sapiens
Experimental: as §1

[5] = system: A375; test: MTT cytotoxicity (IC50), A375; assay type: cell-based; settings: Homo sapiens, A-375
Experimental: as §1

[6] = system: TK-10; test: MTT cytotoxicity (IC50), TK-10; assay type: cell-based; settings: Homo sapiens, 72 h, read-out: IN Vitro IC50 (nm) TK10
Experimental: as §1

[7] = system: MALME-3; test: MTT cytotoxicity (IC50), MALME-3; assay type: cell-based; settings: Homo sapiens, 72 h, read-out: IN Vitro IC50 (nm) Malme3
Experimental: as §1

[8] = system: OVCAR4; test: MTT cytotoxicity (IC50), OVCAR4; assay type: cell-based; settings: Homo sapiens, OVCAR-4, 72 h, read-out: IN Vitro IC50 (nm) OVCAR4
Experimental: as §1

[9] = system: SK-MEL-28; test: MTT cytotoxicity (IC50), SK-MEL-28; assay type: cell-based; settings: Homo sapiens, 72 h, read-out: IN Vitro IC50 (nm) ske-mel28
Experimental: as §1

[10] = system: SNB-19; test: MTT cytotoxicity (IC50), SNB-19; assay type: cell-based; settings: Homo sapiens, 72 h, read-out: IN Vitro IC50 (nm) SNB19
Experimental: as §1

[11] = system: BxPC-3 cancer cell line; test: MTT cytotoxicity (IC50), BxPC-3 (Oncodesign); assay type: cell-based; settings: Homo sapiens
Experimental: BxPC-3 cancer cell line (Source ATCC) and culture medium were purchased and provided by Oncodesign (France).
Tumor cells (5,000 cells per well) were plated in 96-well flat-bottom microtitration plates (Ref 167008, Batch 083310, Nunc, Dutscher, Brumath, France) and incubated at 37° C. for 24 hours before treatment in 100 μl of drug-free RPMI 1640 medium supplemented with 10% FBS. Tumor cell lines were incubated for 72 hours with 10 concentrations of both test substances and TXT (40 to 0.07 nM using ½ step dilutions). Experiments were repeated three times, each assay being issued from quadruplicate. Control cells were treated with the vehicle alone. At the end of treatments, the cytotoxic activity was evaluated by a MTT assay. These studies were conducted at Oncodesign, France.

[12] = system: HT29 human tumor xenografts; test: HT29 xenograft study e139 (Example 23); assay type: in vivo, nude mice
[13] = system: HT29 human tumor xenografts; test: HT29 xenograft study e210, oral and i.v. (Example 25); settings: 25 mg/kg iv qwk × 3
Excerpt: (§2) The formulation for oral studies was an ethanol and Cremophor formulation while the formulation for compound 18365 and compound 19244 dosed i.v. was 5% ethanol and 95% Liposyn II 20%.

[14] = system: HT29 human tumor xenografts; test: HT29 xenograft study e212, oral and i.v. (Example 26); settings: 25 mg/kg iv qwk × 3
Excerpt: as §2

For CC(=O)O[C@@]12CO[C@@H]1C[C@H](O)[C@@]1(C)C(=O)[C@H](O)C3=C(C)[C@@H](OC(=O)[C@H](O)[C@@H](NC(=O)OC(C)(C)C)c4ccccc4)C[C@@](O)([C@@H](OC(=O)c4ccccc4)[C@H]21)C3(C)C [Docetaxel, docetaxel, reference compound], the IC50 [1] was 1.9 nM, the IC50 ([2]; MTT, 72 h, read-out: IN Vitro IC50 (nm) DLD1) was > 10 nM and the IC50 ([2]; Resistance MDR1+, read-out: DLD1 Colon (Table 4, quantity not named; IC50 values as Table 2)) was 20 nM. The IC50 [3] was 1.3 nM, the IC50 ([4]; MTT, 72 h, read-out: IN Vitro IC50 (nm) 786-0) was 6.2 nM and the IC50 ([4]; Resistance MDR1+, read-out: 786-0 Renal (Table 4, quantity not named; IC50 values as Table 2)) was 6.2 nM. For the same compound, the IC50 ([5]; MTT, 72 h, read-out: IN Vitro IC50 (nm) A375) was 2.4 nM, the IC50 ([5]; Resistance MRP9, read-out: A375 Melanoma (Table 4, quantity not named; IC50 values as Table 2)) was 2.4 nM and the IC50 [6] was 1.4 nM. It also gave an IC50 [7] of 1.8 nM, an IC50 [8] of 1.4 nM and an IC50 [9] of 2.1 nM. The IC50 [10] was 1.9 nM, the IC50 ([11]; BXPC-3, 72 h, Exp 1, MTT, 72 hours, read-out: IC50 (nM) BxPC-3) was 0.93 nM and the IC50 ([11]; BXPC-3, 72 h, Exp 2, MTT, 72 hours, read-out: IC50 (nM) BxPC-3) was 2.2 nM. For the same compound, the IC50 ([11]; BXPC-3, 72 h, Exp 3, MTT, 72 hours, read-out: IC50 (nM) BxPC-3) was 0.73 nM, the IC50 ([11]; BXPC-3, mean of 3 experiments, read-out: IC50 Mean ± SD (nM) BxPC-3) was 1.29 ± 0.8 nM and the “Day 54 mm^3 (tumor size)” value ([12]; 25 mg/kg iv q7d × 3) was 180.6 mm^3. The “Max. BW Loss %; Day” value ([12]; 25 mg/kg iv q7d × 3) was −14.4%; Day 19, the “Number of Death NTR” value ([12]; 25 mg/kg iv q7d × 3, N=6) was 0 and the “Number of Death TR” value ([12]; 25 mg/kg iv q7d × 3, N=6) was 0. The TGD ([12]; 25 mg/kg q7d×3) was 210%, the “group mean body-weight (BW) loss” value ([12]; 25 mg/kg q7d×3) was 14.4% and the “MTV (Day 61)” value ([12]; 25 mg/kg q7d×3, five mice) was 196 mm^3. The LTTFS ([12]; 25 mg/kg q7d×3, six mice) was 1, the PR responses ([12]; 25 mg/kg q7d×3, six mice) was 5 and the “% TGD” value [13] was 214.3%. For the same compound, the “MTV (n), Day 60” value [13] was 40.00 (6) mm^3, the “Median TTE” value [13] was 60 days and the T-C [13] was 40.91 days. The “CR (complete regression)” value ([13]; n=6) was 4, the “NTR NTRm” value ([13]; n=6) was 0 and the “PR (partial regression)” value ([13]; n=6) was 2. For the same compound, the “TFS (tumor-free survivor)” value ([13]; n=6) was 2, the “TR (treatment-related death)” value ([13]; n=6) was 0 and the “CR (complete regression)” value ([14]; n=6) was 0. The “NTR NTRm” value ([14]; n=6) was 0, the “PR (partial regression)” value ([14]; n=6) was 3 and the “TFS (tumor-free survivor)” value ([14]; n=6) was 0. The “TR (treatment-related death)” value ([14]; n=6) was 0, the “% TGD” value ([14]; vehicle ET) was 237.14% and the “MTV (n), Day 59” value ([14]; vehicle ET) was 600.00 (6) mm^3. For the same compound, the “Median TTE” value ([14]; vehicle ET) was 59 days and the T-C ([14]; vehicle ET) was 41.5 days.
